Data reported in PMC4569013, “Massive Bioaccumulation and Self‐Assembly of Phenazine Compounds in Live Cells” (Advanced Science, 2015).

Assays:
[1] = tested on: MDCK epithelial cells; assay: Confocal fluorescence microscopy, intracellular localization of inclusions; assay type: cell-based, Canine; conditions: 5 × 10^−6 M, 72 h, live cells
Protocol: (§1) Confocal Fluorescent Microscopy: A Nikon A1 confocal microscope was used for further investigation of live cells incubated with chiral pairs of compounds (T and U) and the parent compound, P. Since crystals or vesicular forms containing chemicals inside the cells incubated with Compound P, T, or U were fluorescent when viewed with the TRITC filter sets, intracellular distribution of these compounds in RAW264.7 or MDCK cells were visualized using a Nikon A1 confocal microscopy (Nikon Instruments Inc., Melville, NY) equipped with diode‐based lasers and a Nikon Apo 60×/1.4 NA oil immersion lens. Briefly, RAW264.7 macrophages or MDCK epithelial cells were seeded in the 8‐well Nunc Lab‐Tek II chambered (#1.5) cover glasses (Thermo Scientific, Pittsburgh, PA) at a density of 8 × 10^3 cells cm^−2 (RAW264.7 cells) or 1.5 × 10^4 cells cm^−2 (MDCK cells) and allowed to adhere overnight (37 °C, 5% CO2). Then, 5 × 10^−6 M of Compound “P” or the related isomers, “T” or “U” in DMEM with 5% FBS (300 μL) was added to the cells and the cells were incubated for 72 h (37 °C, 5% CO2). For live cell imaging, after the removal of media, cells were washed with HBSS buffer twice. Hoechst 33342 (Invitrogen, Carlsbad, CA) was used for staining cell nuclei and FM 1‐43 (Molecular Probes T35356, Invitrogen) for the plasma membrane. Cells were incubated with 300 μL of 1:1 (v/v) dye mixtures of 5 μg mL^−1 Hoechst 33342 and 7 × 10^−6 M FM 1‐43 in HBSS for 15 min at room temperature. Without fixative, the confocal imaging of the live cells was performed using lasers for DAPI (excitation/emission wavelength: 405 nm/450 ± 25 nm), FITC (488 nm/525 ± 25 nm), and TRITC (561 nm/596 ± 25 nm) channels. Z‐stack images of the cells were captured along the Z‐axis (interval, 1 μm) in three fluorescence channels and analyzed by using the Nikon NIS‐Elements 3.2 confocal software (Nikon Instruments Inc., Melville, NY). […]

[2] = tested on: RAW264.7 macrophages; assay: as above; assay type: cell-based; conditions: 5 × 10^−6 M, 72 h, live cells
Protocol: as §1

[3] = tested on: MDCK epithelial cells; assay: Linear diattenuation anisotropy microscopy (LC-PolScope) of intracellular inclusions; assay type: cell-based, Canine; conditions: 72 h, compared with clofazimine
Protocol: (§2) The optical design was built on a Nikon Eclipse Ti microscope equipped with the liquid crystal universal compensator consisting of a linear polarizer and a pair of liquid crystal devices. The LC compensator was part of the transillumination path and was used to illuminate the specimen with monochromatic, linearly polarized light of varying polarization orientation. There was no polarization analyzer present in the imaging path. Quantitative intensity images were recorded by a charge‐coupled device camera and a desktop computer calculated the average transmittance, the differential transmittance and the polarization orientation leading to maximum transmittance for each optically resolved picture element (pixel). Acquisition and processing steps were controlled using OpenPolScope plugins for the open source imaging programs ImageJ and Micro‐Manager (MMStudio version 1.4.15). With the combination of hardware and software, polarized light images were acquired at high sensitivity and high spatial resolution for measuring linear diattenuation.
(§3) Linear Diattenuation Microscopy Data Acquisition and Analysis: After RAW264.7 macrophages or MDCK epithelial cells were incubated with the compound in the chambered cover glasses for 72 h, at the same time of performing transmitted microscopic examination, cell specimens were examined under linear diattenuation microscopy using the Nikon Eclipse Ti microscope with 40×/0.75 NA objective and monochromatic light of two different center wavelengths, 546 and 623 nm (passband 30 nm). In the OpenPolScope software, Pol‐Acquisition and Pol‐Analyzer plugins (version 2.0) were used to capture, process, and analyze the attenuation images. Before imaging the samples, the setup was calibrated using a specially prepared slide featuring four small pieces of linear polarization filters. The transmission axes of the filters were oriented in steps of 45° providing a means to calibrate the LC universal compensator settings. After the calibration, a sample slide was inserted and first a sequence of polarized light images of a clear, fully transmitting sample area was recorded, followed by an image sequence featuring the cells under investigation. The images of the clear area were used to determine instrument factors which were needed for computing the average and the polarization dependent loss in transmittance in cellular components visible in the second image.10
(§4) Linear diattenuation is a material property that can occur in materials such as crystals, in which the light absorbing molecules are arranged with a preferred orientation. The molecular alignment creates principal axes in the material denoting polarization directions for which light is maximally and minimally transmitted. Diattenuation is the difference between maximal (T max) and minimal (T min) transmittance, divided by their sum (Equation (1)): (1) Diattenuation=Tmax‐Tmin/Tmax+Tmin
(§5) To simultaneously measure the attenuation of many crystals with arbitrary orientations, we developed algorithms based on four specimen images, each recorded using light of a different polarization orientation: 0°, 45°, 90°, and 135°.10 The four raw images were used to calculate the average and differential transmittance and the orientation of maximum transmittance in every resolved image pixel. To isolate and analyze quantitative data of the objects (crystals), the anisotropy or maximum transmittance axis orientation image file opened in ImageJ was inverted (Ctrl + Shift + I) and thresholded using ImageJ's default automatic method (“Binary” → “Convert to Mask”). By using the ImageJ's algorithm, “Analyze Particles,” data of anisotropy or maximum transmittance axis orientation of objects in images could be obtained automatically. Diattenuation ratios were calculated by dividing anisotropy at 623 nm by that at 546 nm.

[4] = tested on: RAW264.7 macrophages; assay: as above; assay type: cell-based; conditions: 72 h, compared with clofazimine
Protocol: as §2, §3, §4, §5

With `Clc1ccc(Nc2cc3nc4ccccc4n(-c4ccc(Cl)cc4)c-3cc2=NCCc2ccccc2)cc1` [Compound P] the “Intracellular localization of compound (fluorescence, TRITC channel)” value (from here on “Intracellular localization of compound”) [1] was “localized at the periphery of the cell nuclei”, the “Intracellular localization of compound” value [2] was “localized at the periphery of the cell nuclei” and the “Diattenuation anisotropy of intracellular inclusions” value (“Diattenuation anisotropy” below) [3] was “higher diattenuation anisotropy”. For the same compound, the “Diattenuation anisotropy” value [4] was “higher diattenuation anisotropy”.

`C[C@@H](CN=c1cc2n(-c3ccc(Cl)cc3)c3ccccc3nc-2cc1Nc1ccc(Cl)cc1)c1ccccc1` [Compound U] was tested, and the “Intracellular localization of compound” value [1] was “localized at the periphery of the cell nuclei”, the “Intracellular localization of compound” value [2] was “localized at the periphery of the cell nuclei” and the “Diattenuation anisotropy” value [3] was “only in macrophages”. For the same compound, the “Diattenuation anisotropy” value [4] was “even higher anisotropy”.
